Where two headings read alike, the source gives them in different places.
Tested on: amyloid β production in transfected H4 (human neuroglioma) cells stably expressing APP constructs
Experiment: In vitro cell-based assay of inhibitors of amyloid β production (ELISA)
Details: transfected H4 cells stably expressing APP, amyloid β in medium by ELISA, read-out: ACTIVITY (IC50, inhibition of amyloid β production)
In short: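 Plate wt/variant APP cells; ≥6 h later swap to medium + compound (10-100 μM screen); incubate ~16 h; sample medium; Aβ ELISA with C-terminal capture / N-terminal detection Abs; quantify vs Aβ standard curve.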

[1] = approximately 16 hours incubation

Row | Substance | IC50 [1] [nM] | IC50 (approx. 16 h incubation) [nM]
1 | N-{3-[2-({[(4-chlorophenyl)sulfonyl]-2,5-difluoroanilino}methyl)phenoxy]propyl}-3,5-difluoro-N-methylbenzamide [Example 1000] | > 500 | 
2 | N-{3-[2-({[(4-chlorophenyl)sulfonyl]-2,5-difluoroanilino}methyl)phenoxy]propyl}-3-fluoro-N-methylbenzamide [Example 862] | 100 to 500 | 
3 | N-{3-[2-({[(4-chlorophenyl)sulfonyl]-2,5-difluoroanilino}methyl)phenoxy]propyl}-3-methoxy-N-methylbenzamide [Example 814] | 100 to 500 | 
4 | N-{3-[2-({[(4-chlorophenyl)sulfonyl]-2,5-difluoroanilino}methyl)phenoxy]propyl}-4-ethoxy-N-methylbenzamide [Example 1010] | > 500 | 
5 | N-{3-[2-({[(4-chlorophenyl)sulfonyl]-2,5-difluoroanilino}methyl)phenoxy]propyl}-4-fluoro-N-methylbenzamide [Example 747] |  | 100 to 500
6 | N-{3-[2-({[(4-chlorophenyl)sulfonyl]-2,5-difluoroanilino}methyl)phenoxy]propyl}-4-iodo-N-methylbenzamide [Example 765] |  | 100 to 500
7 | N-{3-[2-({[(4-chlorophenyl)sulfonyl]-2,5-difluoroanilino}methyl)phenoxy]propyl}-N,2-dimethylbenzamide [Example 680] |  | 100 to 500
8 | N-{3-[2-({[(4-chlorophenyl)sulfonyl]-2,5-difluoroanilino}methyl)phenoxy]propyl}-N,3-dimethylbenzamide [Example 696] |  | 100 to 500
9 | N-{3-[2-({[(4-chlorophenyl)sulfonyl]-2,5-difluoroanilino}methyl)phenoxy]propyl}-N,4-dimethyl-3-nitrobenzamide [Example 907] | > 500 | 
10 | N-{3-[2-({[(4-chlorophenyl)sulfonyl]-2,5-difluoroanilino}methyl)phenoxy]propyl}-N,4-dimethylbenzamide [Example 893] | > 500 | 
11 | N-{3-[2-({[(4-chlorophenyl)sulfonyl]-2,5-difluoroanilino}methyl)phenoxy]propyl}-N-methyl-1,3-benzodioxole-5-carboxamide [Example 903] | > 500 | 
12 | N-{3-[2-({[(4-chlorophenyl)sulfonyl]-2,5-difluoroanilino}methyl)phenoxy]propyl}-N-methyl-1-naphthamide [Example 821] | 100 to 500 | 
13 | N-{3-[2-({[(4-chlorophenyl)sulfonyl]-2,5-difluoroanilino}methyl)phenoxy]propyl}-N-methyl-2-naphthamide [Example 810] | 100 to 500 | 
14 | N-{3-[2-({[(4-chlorophenyl)sulfonyl]-2,5-difluoroanilino}methyl)phenoxy]propyl}-N-methyl-2-phenylcyclopropanecarboxamide [Example 917] | > 500 | 
15 | N-{3-[2-({[(4-chlorophenyl)sulfonyl]-2,5-difluoroanilino}methyl)phenoxy]propyl}-N-methyl-3-(trifluoromethyl)benzamide [Example 891] | > 500 | 
16 | N-{3-[2-({[(4-chlorophenyl)sulfonyl]-2,5-difluoroanilino}methyl)phenoxy]propyl}-N-methyl-4-(trifluoromethoxy)benzamide [Example 873] | 100 to 500 | 
17 | N-{3-[2-({[(4-chlorophenyl)sulfonyl]-2,5-difluoroanilino}methyl)phenoxy]propyl}-N-methyl-4-(trifluoromethyl)benzamide [Example 898] | > 500 | 
18 | N-{3-[2-({[(4-chlorophenyl)sulfonyl]-2,5-difluoroanilino}methyl)phenoxy]propyl}-N-methyl-4-nitrobenzamide [Example 872] | 100 to 500 | 
19 | N-{3-[2-({[(4-chlorophenyl)sulfonyl]-2,5-difluoroanilino}methyl)phenoxy]propyl}-N-methylbenzamide [Example 800] |  | 100 to 500
20 | N-{3-[2-({[(4-chlorophenyl)sulfonyl]-2,5-difluoroanilino}methyl)phenoxy]propyl}-N-methylbutanamide [Example 638] |  | 100 to 500
21 | N-{4-[2-(1-{[(4-chlorophenyl)sulfonyl]-2,5-difluoroanilino}ethyl)phenoxy]butyl}-2-cyclohexyl-N-ethylacetamide [Example 785] |  | 100 to 500
22 | N-{4-[2-(1-{[(4-chlorophenyl)sulfonyl]-2,5-difluoroanilino}ethyl)phenoxy]butyl}-2-ethyl-N-methylhexanamide [Example 676] |  | 100 to 500
23 | N-{4-[2-(1-{[(4-chlorophenyl)sulfonyl]-2,5-difluoroanilino}ethyl)phenoxy]butyl}-3-cyclopentyl-N-ethylpropanamide [Example 943] | > 500 | 
24 | N-{4-[2-(1-{[(4-chlorophenyl)sulfonyl]-2,5-difluoroanilino}ethyl)phenoxy]butyl}-N,2,4-trimethylpentanamide [Example 700] |  | 100 to 500
25 | N-{4-[2-(1-{[(4-chlorophenyl)sulfonyl]-2,5-difluoroanilino}ethyl)phenoxy]butyl}-N-ethyl-2-thiophenecarboxamide [Example 756] |  | 100 to 500

Row | Substance | IC50 [1] [nM] | IC50 (approx. 16 h incubation) [nM]
26 | N-{4-[2-(1-{[(4-chlorophenyl)sulfonyl]-2,5-difluoroanilino}ethyl)phenoxy]butyl}-N-ethylacrylamide [Example 739] |  | 100 to 500
27 | N-{4-[2-(1-{[(4-chlorophenyl)sulfonyl]-2,5-difluoroanilino}ethyl)phenoxy]butyl}-N-ethylbenzamide [Example 767] |  | 100 to 500
28 | N-{4-[2-(1-{[(4-chlorophenyl)sulfonyl]-2,5-difluoroanilino}ethyl)phenoxy]butyl}-N-ethylcyclopropanecarboxamide [Example 959] | > 500 | 
29 | N-{4-[2-(1-{[(4-chlorophenyl)sulfonyl]-2,5-difluoroanilino}ethyl)phenoxy]butyl}-N-methyl-1-adamantanecarboxamide [Example 846] | 100 to 500 | 
30 | N-{4-[2-(1-{[(4-chlorophenyl)sulfonyl]-2,5-difluoroanilino}ethyl)phenoxy]butyl}-N-methylacrylamide [Example 843] | 100 to 500 | 
31 | S-ethyl 2-[2-(1-{[(4-chlorophenyl)sulfonyl]-2,5-difluoroanilino}ethyl)phenoxy]ethyl(methyl)thiocarbamate [Example 856] | 100 to 500 | 
32 | S-ethyl 4-[2-(1-{[(4-chlorophenyl)sulfonyl]-2,5-difluoroanilino}ethyl)phenoxy]butyl(ethyl)thiocarbamate [Example 790] |  | 100 to 500
33 | S-ethyl 4-[2-(1-{[(4-chlorophenyl)sulfonyl]-2,5-difluoroanilino}ethyl)phenoxy]ethyl(ethyl)thiocarbamate [Example 830] | 100 to 500 | 
34 | S-ethyl-3-[2-({[(4-chlorophenyl)sulfonyl]-2,5-difluoroanilino}methyl)phenoxy]propyl(methyl)thiocarbamate [Example 757] |  | 100 to 500
35 | S-methyl 2-[2-(1-{[(4-chlorophenyl)sulfonyl]-2,5-difluoroanilino}ethyl)phenoxy]ethyl(ethyl)thiocarbamate [Example 771] |  | 100 to 500
36 | S-methyl 2-[2-(1-{[(4-chlorophenyl)sulfonyl]-2,5-difluoroanilino}ethyl)phenoxy]ethyl(methyl)thiocarbamate [Example 983] | > 500 | 
37 | S-methyl 4-[2-(1-{3-[2-(1-{[(4-chlorophenyl)sulfonyl]-2,5-difluoroanilino}ethyl)phenoxy]butyl(ethyl)thiocarbamate [Example 714] |  | 100 to 500
38 | S-{3-[2-({[(4-chlorophenyl)sulfonyl]-2,5-difluoroanilino}methyl)phenoxy]propyl} ethanethioate [Example 1014] | > 500 | 
39 | [2-((1R)-1-{[(4-chlorophenyl)sulfonyl]-2,5-difluoroanilino}ethyl)-5-fluorophenyl]methanesulfonic acid [Example 1009] | > 500 | 
40 | [({4-[2-((1R)-1-{[(4-chlorophenyl)sulfonyl]-2,5-difluoroanilino}ethyl)-5-fluorophenyl]butanoyl}amino)oxy]acetic acid [Example 1077] | > 500 | 
41 | benzyl 3-[2-(1-{[(4-chlorophenyl)sulfonyl]-2,5-difluoroanilino}ethyl)phenoxy]propyl(methyl)carbamate [Example 678] |  | 100 to 500
42 | ethyl 3-(2-{[(phenylsulfonyl)anilino]methyl}phenyl)propanoate [Example 995] | > 500 | 
43 | ethyl (2E)-3-[2-({[(4-chlorophenyl)sulfonyl]anilino}methyl)phenyl]-2-propenoate [Example 971] | > 500 | 
44 | ethyl (2R)-2-{[(4-chlorophenyl)sulfonyl]-2,5-difluoroanilino}propanoate [Example 1060] | > 500 | 
45 | isobutyl 3-[2-(1-{[(4-chlorophenyl)sulfonyl]-2,5-difluoroanilino}ethyl)phenoxy]propyl(methyl)carbamate [Example 677] |  | 100 to 500
46 | methyl 3-[2-((1R)-1-{[(4-chlorophenyl)sulfonyl]-2,5-difluoroanilino}ethyl)-5-fluorophenyl]propanoate [Example 1065] | > 500 | 
47 | methyl (2S)-2-[[2-((1R)-1-{[(4-chlorophenyl)sulfonyl]-2,5-difluoroanilino}ethyl)benzyl](methyl)amino]propanoate [Example 779] |  | 100 to 500
48 | methyl [[2-((1R)-1-{[(4-chlorophenyl)sulfonyl]-2,5-difluoroanilino}ethyl)benzyl]- [Example 798] |  | 100 to 500
49 | methyl [{2-[2-(1-{[(4-chlorophenyl)sulfonyl]-2,5-difluoroanilino}ethyl)phenoxy]ethyl}(methyl)amino](oxo)acetate [Example 929] | > 500 | 

From patent US6967196B1, “Sulfonamide compounds and uses thereof” (Bristol-Myers Squibb Company, priority 1999, dated 2005)
